Measured values published in ChEMBL document CHEMBL5108075, “Sialidase Inhibitors with Different Mechanisms” (J Med Chem, 2022).

Experiment: Inhibition of Trypanosoma cruzi trans-sialidase

CC(=O)N[C@H]1[C@H]([C@H](O)[C@H](O)CO)OC(Oc2ccc([N+](=O)[O-])cc2C(F)F)(C(=O)O)C[C@H]1O (stereo partly specified)
IC50: 600 µM
